Laboratory results from patent US20070027181A1, “Benzylisoquinoline derivative- or bisbenzylisoquinoline derivative-containing psychotropic agent, analgesic and/or antiphlogistic, and health food” (EDUCATION CENTER OF TRADITIONAL, priority 2004, published 2007).

How the values were obtained:
[1] = Seibu et al., Journal of Natural Products 49 (1986); no specific data; cited from earlier work
[2] = system: mice; assay: forced swimming test (antidepressive action); type: in vivo, Male ICR mice; conditions: 100 mg/kg i.p., 6-minute period
Description: (§1) In the following Examples, all extracts and drugs used were dissolved in physiological saline before use for i.p. administration and the dose was 0.1 ml of physiological saline per 10 g of mouse body weight in either case. All extracts and drugs were suspended in physiological saline containing 1% sodium carboxymethylcellulose before use for oral administration and the dose was 0.1 ml of 1% sodium carboxymethylcellulose-containing physiological saline suspension per 10 g of mouse body weight in either case. Male ICR mice (Japan SLC) having a body weight of 25 to 30 g were used in the tests below unless otherwise stated, and were fed in advance at a room temperature of 23±1° C. and a relative humidity of 55±5% in the environment of a cycle of 12-hour-light from 7 a.m. to 7 p.m. and 12-hour-dark from 7 p.m. to 7 a.m. for 3 to 5 days. The mice were allowed to have water and feed freely.
Forced swimming tests were conducted according to the method of Porsolt et al. A mouse was placed in a cylindrical glass water tank of 10 cm in diameter and 25 cm in height (water temperature: 23° C.) filled with water to a depth of 10 cm and forced to swim therein. […] Each mouse was forced to swim 15 and 30 minutes after administration, and the immobile times during the 6-minute periods immediately after forced swimming were determined. […]

[3] = system: mice; assay: elevated plus-maze test (antianxiety action); type: in vivo, Male ICR mice; conditions: 100 mg/kg i.p., 30 minutes after administration
Description: In the following Examples, all extracts and drugs used were dissolved in physiological saline before use for i.p. administration and the dose was 0.1 ml of physiological saline per 10 g of mouse body weight in either case. All extracts and drugs were suspended in physiological saline containing 1% sodium carboxymethylcellulose before use for oral administration and the dose was 0.1 ml of 1% sodium carboxymethylcellulose-containing physiological saline suspension per 10 g of mouse body weight in either case. […]
An elevated plus-maze (Neuroscience Inc.) consisting of 2 arms without high walls and 2 arms enclosed by high walls, which were crossing perpendicular to each other, was used for evaluation. A mouse was placed on the platform at the center in a position facing toward an arm without walls, and the number of times the mouse entered into both arms and the period of the mouse staying in the arms without walls were determined during a period of 5 minutes. The results were evaluated by the ratio (%) of the number of the mouse entering into the arms without walls to the total number of entering into both arms and by the ratio (%) of the period of the mouse staying in the arms without walls to the test period. […]

[4] = system: mice; assay: suppression of the enhancement of ultromotivity by methamphetamine; type: in vivo, Male ICR mice; conditions: methamphetamine 1 mg/kg 15 minutes later, 60 minutes
Description: as §1, with “The mice were allowed to have water and feed freely.” left out
Fifteen mice were grouped into three groups of five mice, to which 50 mg/kg of neferine hydrochloride (treatment group 3-1), 100 mg/kg of the same (treatment group 3-2), and only physiological saline (negative control group) were administered respectively intraperitoneally. […] After administration of methamphetamine, each of the mice was placed in a transparent polycarbonate cage (22.5 cm×33.8 cm×14.0 cm), where the ultromotivity of the mouse was analyzed for 60 minutes by using a locomotor activity analyzer (NS-AS01, Neuroscience Inc.).

[5] = system: mice; conditions: Ito et al., abstract of the Japanese Society of Pharmacognosy; cited from earlier work
[6] = system: mice; assay: thiopental sleep-enhancing test; type: in vivo, Male ICR mice; conditions: 50 mg/kg i.p. 15 minutes before thiopental 60 mg/kg i.p.
Description: Actions on thiopental sleep by various compounds were evaluated. Thiopental dissolved in physiological saline was administered intraperitoneally into mice at a dose of 60 mg/kg. […] The time when the righting reflex of the mice disappeared after thiopental administration was designated as sleep-induction time and the time when the righting reflex was restored was designated as awakening time, and total sleep time was calculated from these values.

[7] = system: mice; assay: locomotor activity (ultromotivity) test, evaluation of sedative action; type: in vivo, Male ICR mice
Description: as §1
Twenty five mice were grouped into five groups each having five mice, to which 5 mg/kg of N-methylcoclaurine hydrochloride (treatment group 1-1: i.p. administration), 50 mg/kg of neferine hydrochloride (treatment group 1-2: oral administration, and treatment group 1-3: i.p. administration), 50 mg/kg of liensinine hydrochloride (treatment group 1-4: oral administration), or physiological saline (negative control group 1-1: i.p. administration) was administered. The ultromotivity of the mice was analyzed by using a locomotor activity monitoring system (NS-AS01, Neuroscience Inc.). The ultromotivity measurements were performed at an interval of 5 minutes for 60 minutes, and the ultromotivity was judged from the count at each measuring time.
Similar tests were conducted by i.p. administration of 25 mg/kg of N-norarmepavine (treatment group 1-5, n=6), 25 mg/kg of O,O-dimethylcoclaurine (treatment group 1-6, n=5), 10 mg and 25 mg/kg of armepavine (respectively, treatment group 1-7, n=6, and treatment group 1-8, n=6), 10 mg and 25 mg/kg of O-methylarmepavine (respectively, treatment group 1-9, n=6, and treatment group 1-10, n=6), and physiological saline (negative control group 1-2, n=5). The ultromotivity measurements were performed at an interval of five minutes for 60 minutes, and the ultromotivity was subjected to a significant difference test (Tukey's method) by using the counts at respective measuring times.
Tests were performed by using mice administered intraperitoneally with 25 mg/kg of neferine hydrochloride (treatment group 7-1, n=6), 25 mg/kg of liensinine hydrochloride (treatment group 7-2, n=6), and physiological saline (negative control group, n=6) as well as 5 mg/kg of diazepam (positive control group, n=6) and a rotarod equipment (Ugo Basile, Italy) and a locomotor activity monitoring system (NS-AS01, Neuroscience Inc.). The rotarod test was performed by placing a mouse on a rod having a diameter of 4 cm rotating at a speed of 8 rpm 15 minutes after drug administration and observing whether the mouse can stay on the rod without falling for three minutes. The individuals that had fallen from the rotating rod in the period of 3 minutes were judged that they are with motor coordination disorder. […] In addition, the ultromotivity measurements were performed at an interval of five minutes for 60 minutes, and the ultromotivity results were subjected to a significant difference test (Tukey's method) by using the counts at respective measuring times.

COc1ccc(C[C@@H]2c3cc(Oc4cc(C[C@@H]5c6cc(OC)c(OC)cc6CCN5C)ccc4O)c(OC)cc3CCN2C)cc1 [neferine]
antihypertensive action [1]: exhibited an antihypertensive action | Immobile time (sec) After 15 minutes ([2]; 15 minutes after administration): 165 s | Immobile time (sec) After 30 minutes ([2]; 30 minutes after administration): 170 s | Invasion times (%) ([3]; entries into arms without walls / total entries): 70% | Staying period (%) ([3]; period in arms without walls / test period): 33% | Ultromotivity (count) ([4]; 50 mg/kg i.p.): 2600 count | Ultromotivity (count) ([4]; 100 mg/kg i.p.): 1800 count | locomotor activity-inhibiting action [5]: exhibited a locomotor activity-inhibiting action | Total sleep time [6]: 100 min | Significant difference test of ultromotivity ([7]; 25 mg/kg i.p., Tukey's method, 60 minutes): P < 0.01 | Ultromotivity (count) 30 minutes ([7]; 50 mg/kg i.p.): 500 count | Ultromotivity (count) 60 minutes ([7]; 50 mg/kg i.p., 60 minutes): 760 count | Ultromotivity (count) 30 minutes ([7]; 50 mg/kg oral): 500 count | Ultromotivity (count) 60 minutes ([7]; 50 mg/kg oral, 60 minutes): 750 count
